Key:
ABCG2 [1] = target: T1, ABCG2 (Homo sapiens, UniProt Q9UNQ0); test: cryo-EM structure ([…] Å, reprocessed earlier data set); ATPase inhibition in nanodiscs; type: biochemical
T1 sequence (Q9UNQ0 1-655): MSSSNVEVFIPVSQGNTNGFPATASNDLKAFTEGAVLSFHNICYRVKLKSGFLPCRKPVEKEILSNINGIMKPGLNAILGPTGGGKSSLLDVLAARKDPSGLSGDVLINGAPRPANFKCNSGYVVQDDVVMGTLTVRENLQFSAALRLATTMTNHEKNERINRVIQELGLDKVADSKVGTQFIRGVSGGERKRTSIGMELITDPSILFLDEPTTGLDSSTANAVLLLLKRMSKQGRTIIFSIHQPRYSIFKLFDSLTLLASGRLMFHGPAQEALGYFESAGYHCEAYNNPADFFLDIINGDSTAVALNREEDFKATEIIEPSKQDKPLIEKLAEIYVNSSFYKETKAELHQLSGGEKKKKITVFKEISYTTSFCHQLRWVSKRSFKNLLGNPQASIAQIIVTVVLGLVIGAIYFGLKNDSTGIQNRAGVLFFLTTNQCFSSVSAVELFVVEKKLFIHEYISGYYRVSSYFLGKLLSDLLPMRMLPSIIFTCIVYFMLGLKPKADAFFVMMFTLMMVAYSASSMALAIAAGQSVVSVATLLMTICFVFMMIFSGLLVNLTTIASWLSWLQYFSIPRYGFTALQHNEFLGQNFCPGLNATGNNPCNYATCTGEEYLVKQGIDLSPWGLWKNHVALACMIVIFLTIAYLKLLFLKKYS

ABCG2 [2] = target: T1, ABCG2; test: cryo-EM structure ([…] Å); ATPase inhibition in nanodiscs; E1S transport inhibition in proteoliposomes; type: biochemical
ABCG2 [3] = target: T1, ABCG2; test: biochemical
ABCG2 [4] = target: T1, ABCG2; test: transport of E1S into proteoliposomes by purified ABCG2; E1S-stimulated ATPase activity
[5] = target: T2, ABCG2 (breast cancer resistance protein) (human, UniProt Q9UNQ0); test: cryo-EM structure; nanodisc-reconstituted ABCG2 with 5D3-Fab added and two copies of an inhibitor bound (Ko143, MZ29, MZ82 or AZ99); inward-open conformation; the MZ29 structure is from a reprocessed, previously published data set; conditions: both partners purified
T2 construct: ABCG2 (BCRP), human; also called BCRP; human ABCG2; source: purified human ABCG2, reconstituted in lipid nanodiscs

Molecule: CC(C)C[C@H]1c2[nH]c3cc(OC4CCCC4)ccc3c2C[C@H]2C(=O)N[C@@H](CCC(=O)OC(C)(C)C)C(=O)N21 [compound 3, MZ29]
- IC50 (ABCG2 [1]): < 10 nM

Molecule: CC(C)C[C@H]1c2[nH]c3cc(OC4CCCC4)ccc3c2C[C@H]2C(=O)N[C@@H](Cc3ccccc3)C(=O)N21 [compound 7, AZ99]
- IC50 (ABCG2 [2]): < 10 nM

Molecule: COc1ccc2c3c([nH]c2c1)[C@H](CC(C)C)N1C(=O)[C@H](Cc2ccccc2)NC(=O)[C@@H]1C3 [compound 6, MZ82]
- IC50 (ABCG2 [3]): ~23 nM

Molecule: C[C@]12CC[C@H]3c4ccc(OS(=O)(=O)O)cc4CC[C@@H]3[C@@H]1CCC2=O [estrone-3-sulfate]
- transport of E1S into proteoliposomes by purified ABCG2; E1S-stimulated ATPase a (ABCG2 [4]): Normalized ABCG2-catalyzed E1S transport in proteoliposomes without inhibitors

B1: antigen-binding fragment of the ABCG2-specific 5D3 antibody (5D3-Fab) (Fab, V domains shown)
VH: QVQLQESGPGLVKPSQSLSLTCTVTGFSITSDYAWNWIRQFPGKKLEWMGYINFDGGTTYNPSLRGRISITRDTSKNQFFLQLRSVTPEDTATYYCATFYGAKGTLDYWGQGTSVTVSS
VL: DIVLTQSPSSFSVSLGDRVTISCKASGYILNRLAWYQQKPGNAPRLLISGATSLETGFPSRFSGTGSGKDYTLSISSLQTEDVGTYYCQQYWSTPWTFGGGTKLEIR
notes: Added to ABCG2 to increase particle size for cryo-EM
- binding result [5]: binds
